What was measured:
[1] = in vivo
From the text: Many cancer therapeutics are cytotoxic in nature and have profound effects on blood cells resulting in cytopenia.

[2] = system: autoimmune animal diseases; conditions: in vivo; cited from earlier work
T98G cells = test: PDGF-stimulated DNA synthesis, T98G cells (3H-thymidine); format: cell-based, human; conditions: 50 ng/ml PDGF-BB
Description: T98G cells in log phase growth were transferred to 96-well dishes at 20,000 cells in 200 μL of serum-containing growth medium. After an overnight attachment period, the monolayers were washed twice with 200 μL MCDB 105 medium and the cells were cultured in 200 μL serum-free MCDB 105 medium for 24 hr. […] The plates were incubated at 37° C. at ambient CO2 for approximately 18 hr. ^3 H-thymidine (Amersham, 5 Ci/mmol) was added to each well to yield a final concentration of 5 μCi/mL and the plates were returned to 37° C. incubator. After 4 hr the medium was removed, the plates were put onto ice, and washed twice with 200 μL ice-cold PBS per well. Radioactivity incorporated into DNA was separated from unincorporated ^3 H-thymidine by precipitation with 100 μL ice-cold TCA for 10 min on ice. […] Six mL of cocktail (Ready Safe, Beckman) was added and radioactivity quantified in a Beckman liquid scintillation counter model LS6000SC. […]
The effect on basal ^3 H-thymidine incorporation was determined in the absence of PDGF. […] Radioactivity incorporated into DNA was separated from unincorporated ^3 H-thymidine by precipitation with […] ice-cold TCA for 10 minutes. […] Six ml of cocktail (Ready Safe, Beckman) was added and radioactivity quantified in a Beckman liquid scintillation counter model LS6000 SC.

Question: Which results are given for `Cc1oncc1C(=O)Nc1ccc(C(F)(F)F)cc1` [Compound A10, 5-methylisoxazole-4 carboxylic acid-(4-trifluromethyl)-anilide]?
Answer: effects on blood cell [1]: No effects on blood cell were observed; autoimmune animal diseases [2]: very effective in preventing and curing several autoimmune animal diseases; PDGF-stimulated DNA synthesis (T98G cells): decreased PDGF-stimulated DNA synthesis in both types of cells, however a greater effect was seen in human T98G glioblastoma cells

— patent US6331555A, “Treatment of platelet derived growth factor related disorders such as cancers” (priority 1999, dated 2001)
